Source: patent US20250154144A1 (CHILDREN'S HOSPITAL MEDICAL CENTER, priority 2021, published 2025)
Positions count from the first letter of the chain named.

Experiments:
FLT3 [1] = target: T1, FLT3 (Homo sapiens, UniProt P36888); assay: RBC HotSpot Kinase Assay, FLT3
T1 sequence (P36888 610-943 limits assumed): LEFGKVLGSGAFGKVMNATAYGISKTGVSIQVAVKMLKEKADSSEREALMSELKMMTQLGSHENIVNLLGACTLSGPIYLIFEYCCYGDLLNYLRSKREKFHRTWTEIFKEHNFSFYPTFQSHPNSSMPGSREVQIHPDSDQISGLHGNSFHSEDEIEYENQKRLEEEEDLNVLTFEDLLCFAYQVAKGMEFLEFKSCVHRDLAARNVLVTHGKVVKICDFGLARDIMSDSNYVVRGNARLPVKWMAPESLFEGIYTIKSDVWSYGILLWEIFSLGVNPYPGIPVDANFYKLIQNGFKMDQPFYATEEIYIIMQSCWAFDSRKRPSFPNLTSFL

FLT3 [2] = target: T2, FLT3 (Homo sapiens, UniProt P36888); assay: Reaction Biology NanoBRET target engagement assay in HEK-293 cells, FLT3
T2 sequence (P36888 27-993): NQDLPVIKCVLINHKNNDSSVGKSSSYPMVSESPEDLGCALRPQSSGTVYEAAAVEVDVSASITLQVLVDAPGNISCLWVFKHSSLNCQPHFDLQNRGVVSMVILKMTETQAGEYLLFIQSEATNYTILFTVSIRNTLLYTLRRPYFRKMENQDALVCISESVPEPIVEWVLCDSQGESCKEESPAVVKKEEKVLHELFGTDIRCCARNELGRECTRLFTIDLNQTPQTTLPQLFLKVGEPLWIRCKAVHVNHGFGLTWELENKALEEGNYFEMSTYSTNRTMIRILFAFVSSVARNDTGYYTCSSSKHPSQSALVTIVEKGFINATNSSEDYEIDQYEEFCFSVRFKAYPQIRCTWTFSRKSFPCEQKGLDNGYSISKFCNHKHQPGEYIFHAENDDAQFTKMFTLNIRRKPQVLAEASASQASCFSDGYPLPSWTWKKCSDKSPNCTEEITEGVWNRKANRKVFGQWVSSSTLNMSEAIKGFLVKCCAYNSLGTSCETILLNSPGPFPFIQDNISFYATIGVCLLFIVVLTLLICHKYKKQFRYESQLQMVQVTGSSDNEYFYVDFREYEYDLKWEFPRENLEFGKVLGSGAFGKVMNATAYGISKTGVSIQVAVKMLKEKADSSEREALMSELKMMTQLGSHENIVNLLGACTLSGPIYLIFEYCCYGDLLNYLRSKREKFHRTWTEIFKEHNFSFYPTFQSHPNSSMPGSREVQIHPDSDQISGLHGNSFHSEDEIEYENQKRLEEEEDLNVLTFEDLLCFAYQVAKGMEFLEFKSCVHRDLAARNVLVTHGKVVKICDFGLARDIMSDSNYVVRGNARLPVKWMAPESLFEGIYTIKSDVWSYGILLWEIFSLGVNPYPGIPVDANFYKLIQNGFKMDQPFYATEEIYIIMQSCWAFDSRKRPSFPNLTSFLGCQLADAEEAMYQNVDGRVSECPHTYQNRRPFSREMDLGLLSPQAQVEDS

FLT3 Autoinh. = target: T3, FLT3 Autoinh. (Homo sapiens, UniProt P36888); assay: DiscoverX KINOMEscan competition binding, FLT3 Autoinh.
T3 construct: purchased DiscoverX (KINOMEscan)
T3 sequence (P36888 564-993 limits assumed): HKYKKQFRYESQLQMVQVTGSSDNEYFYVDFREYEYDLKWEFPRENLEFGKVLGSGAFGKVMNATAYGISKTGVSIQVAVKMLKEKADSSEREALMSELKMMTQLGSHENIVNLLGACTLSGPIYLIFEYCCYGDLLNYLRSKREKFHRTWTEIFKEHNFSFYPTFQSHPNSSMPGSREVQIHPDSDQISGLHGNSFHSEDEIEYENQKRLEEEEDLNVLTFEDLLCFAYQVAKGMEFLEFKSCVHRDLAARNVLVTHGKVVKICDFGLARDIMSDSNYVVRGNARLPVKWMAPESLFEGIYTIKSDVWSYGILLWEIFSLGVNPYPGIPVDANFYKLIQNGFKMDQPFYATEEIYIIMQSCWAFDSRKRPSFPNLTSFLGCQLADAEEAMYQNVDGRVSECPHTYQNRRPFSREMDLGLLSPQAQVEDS

MOLM14 F691L cells = assay: cells; type: cell-based; conditions: Homo sapiens, MOLM-14, 48 h, 48 hours, Cell Titer Glo; read-out: MOLM14 F691L IC50
FLT3 D835H = target: T4, FLT3 D835H (Homo sapiens, UniProt P36888, D835H); assay: DiscoverX KINOMEscan competition binding, FLT3 D835H
T4 construct: purchased DiscoverX (KINOMEscan)
T4 sequence (P36888 27-993 D835H): T2 sequence (P36888 27-993) with D809H

[3] = NanoBRET FLT3 IC50, HEK-293 cells

CC(O)(c1cn2c(-c3ccnc(N[C@H]4CNCC[C@@H]4F)n3)cnc2cn1)C(F)(F)F (single isomer, unassigned) [Compound 72]
IC50 (FLT3 [1]; read-out: FLT3 IC50): < 0.0005 µM
IC50 (FLT3 [2]; [3]): 0.992 µM
Kd (FLT3 Autoinh.): 0.025 µM
IC50 (MOLM14 F691L cells): 0.433 µM
Kd (FLT3 D835H): 0.0011 µM

F[C@H]1CCNC[C@@H]1Nc1cncc(-c2cnc3cc(OC4CC4)ccn23)n1 [Compound 12, 6-(7-cyclopropoxyimidazo[1,2-a]pyridin-3-yl)-N-((3S,4S)-4-fluoropiperidin-3-yl)pyrazin-2-amine]
IC50 (FLT3 [1]; FLT3 IC50): < 0.0005 µM
IC50 (FLT3 [2]; [3]): 0.177 µM
IC50 (MOLM14 F691L cells): 0.086 µM
Kd (FLT3 D835H): 0.0011 µM

COc1cc2ncc(-c3cncc(N[C@H]4CNC[C@@H]4F)n3)n2nc1C1CC1 [Compound 22, 6-(6-cyclopropyl-7-methoxyimidazo[1,2-b]pyridazin-3-yl)-N-((3S,4S)-4-fluoropyrrolidin-3-yl)pyrazin-2-amine]
IC50 (FLT3 [1]; FLT3 IC50): < 0.0005 µM
IC50 (FLT3 [2]): 0.322 µM
Kd (FLT3 Autoinh.): 0.033 µM
Kd (FLT3 D835H): 0.00087 µM

COc1cc2ncc(-c3cncc(N[C@H]4CNCC[C@@H]4F)n3)n2nc1C1CC1 [Compound 24, 6-(6-cyclopropyl-7-methoxyimidazo[1,2-b]pyridazin-3-yl)-N-((3S,4S)-4-fluoropiperidin-3-yl)pyrazin-2-amine]
IC50 (FLT3 [1]; FLT3 IC50): < 0.0005 µM
IC50 (FLT3 [2]; [3]): 0.019 µM
Kd (FLT3 Autoinh.): 0.025 µM
Kd (FLT3 D835H): 0.00033 µM

COc1cc2ncc(-c3ccnc(N[C@@H]4CCCNC4)n3)n2cc1C(C)(C)O [Compound 44, (R)-2-(7-methoxy-3-(2-(piperidin-3-ylamino)pyrimidin-4-yl)imidazo[1,2-a]pyridin-6-yl)propan-2-ol]
IC50 (FLT3 [1]; FLT3 IC50): < 0.0005 µM
IC50 (FLT3 [2]; [3]): 0.018 µM
Kd (FLT3 Autoinh.): 0.0023 µM
IC50 (MOLM14 F691L cells): 0.086 µM
Kd (FLT3 D835H): 0.00028 µM

COc1cc2ncc(-c3ccnc(N[C@H]4CNC[C@@H]4F)n3)n2nc1C1CC1 [Compound 49, 4-(6-cyclopropyl-7-methoxyimidazo[1,2-b]pyridazin-3-yl)-N-((3S,4S)-4-fluoropyrrolidin-3-yl)pyrimidin-2-amine]
IC50 (FLT3 [1]; FLT3 IC50): < 0.0005 µM
Kd (FLT3 Autoinh.): 0.016 µM
IC50 (MOLM14 F691L cells): 0.307 µM
Kd (FLT3 D835H): 0.00046 µM

COc1cc2ncc(-c3ccnc(N[C@@H]4CCCNC4)n3)n2nc1C1CC1 [Compound 50, (R)-4-(6-cyclopropyl-7-methoxyimidazo[1,2-b]pyridazin-3-yl)-N-(piperidin-3-yl)pyrimidin-2-amine]
IC50 (FLT3 [1]; FLT3 IC50): < 0.0005 µM
IC50 (MOLM14 F691L cells): 0.172 µM

COc1cc2ncc(-c3ccnc(N[C@H]4CNCC[C@@H]4F)n3)n2nc1C1CC1 [Compound 51, 4-(6-cyclopropyl-7-methoxyimidazo[1,2-b]pyridazin-3-yl)-N-((3S,4S)-4-fluoropiperidin-3-yl)pyrimidin-2-amine]
IC50 (FLT3 [1]; FLT3 IC50): < 0.0005 µM
IC50 (FLT3 [2]; [3]): 0.009 µM
Kd (FLT3 Autoinh.): 0.04 µM
IC50 (MOLM14 F691L cells): 0.122 µM
Kd (FLT3 D835H): 0.00047 µM
